Laboratory results reported in US20210322350A1, “EXOGENOUS KETONE SUPPLEMENTATION COMPOSITIONS, SYSTEMS AND METHODS” (Ketone Clarity LLC, priority 2020, published 2021).

Experiments:
[1] = consumed at 30-35 g of product; short lasting; cited from earlier work
[2] = 750 mg/kg by gavage 24 hours after 0.5 or 6 Gy radiation; cited from earlier work
[3] = Blood ketone levels after exogenous ketone supplementation; format: in vivo, human
Text: Technical effect: raising blood ketone levels by currently known methods. FIG. 6 is a graphical illustration of exogenous ketone blood levels by three precursors using Medium Chain Triglycerides, ketone salts and ketone esters. […] In the healthy adult, blood ketone levels can be naturally raised from a 0.0 mmol/L baseline to 0.5 mmol/L while following a normal diet.
While MCT oil can raise blood ketone levels for a long duration, often the rise in ketone levels is nominal at best with a 0.5 mmol/L increase. Ketone salts can raise blood ketone levels to 1.5 mmol/L, but often do so with a metabolic load of heavy salt ingestion along with an undesired racemic mixture of both ‘D’ and ‘L’ isomers of BHB. The so called “ketone ester” synthetic products can raise blood ketone levels to 2-4 mmol/L when consumed at 30-35 g of product but the result is often short lasting.
FIG. 7 is a graphical illustration of D-BHB exogenous ketone blood levels.
(§1) FIG. 9 is a graphical illustration of blood levels of ketones and glucose resulting from the claimed invention. In the graphical illustration, body ketone levels increase from 1.4 mmol/L to 2.7 mmol/L after 50 minutes of consuming 10 g of D-BHB. […]

[4] = Blood glucose levels after D-BHB consumption; format: in vivo, human
Experimental: FIG. 9 is a graphical illustration of blood levels of ketones and glucose resulting from the claimed invention. In the graphical illustration, body ketone levels increase from 1.4 mmol/L to 2.7 mmol/L after 50 minutes of consuming 10 g of D-BHB. While ketone levels increase, glucose levels are decreased from 5.2 mmol/L to 4.8 mmol/L. While blood ketone rates can change rapidly as ketones are consumed through exercise or metabolic activity, the lowering of glucose often happens over a prolonged period of time. Consequently, this example is a good introduction to the regulatory effects of the ketone body D-BHB which are independent of and often outlast the energy benefits provided by exogenous ketones even after they are consumed by the body.
FIG. 14 is a graphical illustration of lowered blood glucose measured in mmol/L as a result of daily 10 g consumption resulting from enhanced D-BHB levels according to the claimed invention. Diet plays a key role in the onset and progression of Type II diabetes and pre-diabetic conditions. The hallmark indication of the progression of this disease is identified through measurement of blood glucose levels. […] In a preferred embodiment 10-20 g of D-BHB are consumed, but more or less can be utilized in other embodiments of the claimed invention.

[5] = Glucose/Ketone Index (GKI); format: in vivo, human
Experimental: Introducing GKI: Measuring Glucose vs Ketones. FIG. 8 is a schematic illustration of the Glucose/Ketone Index. When measuring both blood ketone levels and blood glucose levels, taking reference from the Glucose/Ketone Index (GKI) can help guide a user to achieve therapeutic benefits according to the claimed invention. The Glucose/Ketone Index is measured by dividing the blood level of glucose by the blood level of ketones measured in mmol/L. By way of illustration, a healthy individual not following the ketogenic diet could have glucose levels of 5.0 mmol/L and ketone levels of 0.1 mmol/L. According to the GKI they would have a value of greater than 9 and as such would not be in ketosis. An individual following the ketogenic diet and potentially supplementing their diet with ketone salts or MCT oil may have a glucose level of 5.6 mmol/L and ketone level of 1.3 mmol/L, resulting in a GKI of 4.3. This moderate ketosis level can be useful for managing obesity and diabetes.
as §1

[6] = Sleep cycles (deep and light sleep time) with D-BHB taken prior to sleep; format: in vivo; details: over several sleep cycles
Text: During deep sleep, a variety of functions take place in the mind and body. During deep sleep not only does physical recovery occur. The brain recuperates as well during which memories are consolidated and learning and emotions are processed. Physiologically, blood sugar levels and metabolism balance out and the immune system is energized. FIG. 11 is a graphical illustration of improved sleep time resulting from enhanced D-BHB levels according to the claimed invention based on the data detailed in Table 1.
The data gathered in Table 1 reflects unaided sleep cycles in bold together with sleep aided by 10-20 g D-BHB which is reflective of a preferred embodiment of the claimed invention. On average, unaided sleep results in approximately 1.5 hours of deep sleep in an eight hour sleep cycle. […] In a preferred and foreseen embodiment of the claimed invention, improved deep sleep is achieved as a result of exogenous ketone D-BHB supplementation.

[7] = Systolic and diastolic blood pressure after D-BHB ingestion; format: in vivo; details: 10 g; measurable within an hour, remains several hours
Text: FIG. 12 is a graphical illustration of improved blood pressure resulting from enhanced D-BHB levels according to the claimed invention. In addition to increasing blood ketones and lowering blood glucose, consumption of exogenous D-BHB according to the claimed invention also has a direct and measurable impact on lowering blood pressure. […] Blood pressure reduction is measurable within an hour of ingestion and is positive effects of lower blood pressure remain for several hours afterwards.

[8] = Blood oxygen levels before and after D-BHB; format: in vivo; details: 30 minutes after 10 g; from 80%
Text: FIG. 13 is a graphical illustration of enhanced blood oxygen resulting from enhanced D-BHB levels according to the claimed invention.

[9] = Sensation of hunger after waking; format: in vivo; details: several hours after rising in the morning
Text: FIG. 15 is a graphical illustration of lowered hunger resulting from enhanced D-BHB levels according to the claimed invention. While the sensation of hunger itself arises from a complex interplay of glucose, insulin and the hormone ghrelin, identification and measurement of hunger is easy and straightforward according to the claimed invention. Hunger is often a key reason why diet attempts such as attempting to follow the ketogenic diet or other diets fail. Hunger is also a significant impediment to individuals attempting to undergo a fasting state for health or other purposes. While even consuming a moderate amount such as 5 g of exogenous natural D-BHB ketone supplement can reduce the sensation of hunger, regular consumption of larger amounts such as 10 g-20 g represent a preferred embodiment of the claimed invention. […] Hunger reduction, however, is provided at any time of day according to the claimed invention and is not just morning dependent.

[10] = Physical endurance on a measured exercise course; format: in vivo
Text: FIG. 16 is a graphical illustration of improved physical endurance resulting from enhanced D-BHB levels according to the claimed invention. While understanding of the mechanism of ketone enhancement of physical endurance is only beginning, there is a direct and measurable benefit of consumption of natural D-Beta HydroxyButyric acid to enhance physical exertion and post-exercise activity recovery. FIG. 16 illustrates the physical performance parameter in which a subject with and without natural D-BHB ketone supplementation is impeded by shortness of breath and muscle pain and drop in performance owing to lactic acid build-up in the body. Without natural D-BHB ketone supplementation on a measured exercise course pain and fatigue will occur after 27 minutes. […] While preferred consumption of natural D-BHB can range from 10 g-30 g of natural D-BHB, lesser or greater amounts may also be safely consumed for exercise improvement and benefits.

[11] = Anti-depression and anti-anxiety mood enhancement; format: in vivo; details: in the absence of anti-depressant and/or anti-anxiety medication; at least 10 g at least twice per day
Text: FIG. 18 is a graphical illustration of improved mental anti-depression and anti-anxiety activity resulting from enhanced D-BHB levels according to the claimed invention. […] While preferred consumption of natural D-BHB can range from 10 g-30 g of natural D-BHB, a best illustrative example reflects at least 10 g exogenous D-BHB supplementation at least twice per day.

[12] = Bone density measurements during D-BHB consumption; format: in vivo; details: 10 g daily; period during which bone loss was expected
Text: FIG. 20 is a graphical illustration of sustained bone protection resulting from enhanced D-BHB levels according to the claimed invention. Loss of bone density can be statistically predicted and measured during specific time of life events such as post-menopause as well as during space missions for astronauts in space. […] Similar benefits against bone loss for space based applications are indicated and expected with consumption of 20 g of exogenous D-BHB daily.

[13] = Gout pain and inflammation; format: in vivo
Text: FIG. 21 is a graphical illustration of gout reduction resulting from enhanced D-BHB levels according to the claimed invention. Owing to the role of exogenous natural D-BHB as a regulatory element of the NLRP3 inflammasome, inflammations are reduced as a direct result of exogenous D-BHB supplementation. In a preferred embodiment, 10 g or more of D-Beta HydroxyButyric acid is consumed daily to reduce gout flare-ups.

HDAC = details: cited from earlier work

In the case of `C[C@@H](O)CCOC(=O)C[C@@H](C)O` [ketone ester, (R)-3-hydroxybutyl (R)-3-hydroxybutyrate], the “blood ketone levels raised to” value [1] is given as 2 to 4 mmol/L and the “radiation-induced decrease of reticulocyte/erythrocyte ratio in bone marrow” value [2] is given as “significantly attenuated”.

In the case of `CC(O)CC(=O)O` [D-BHB, D-Beta-HydroxyButyric Acid], the body ketone level ([3]; 50 minutes after consuming 10 g, from 1.4 mmol/L) is reported as 2.7 mmol/L, the “blood ketone levels versus existing methods” value ([3]; consumption of 10-30 g) is reported as “higher blood ketone levels” and the glucose level ([4]; after consuming 10 g, from 5.2 mmol/L) is reported as 4.8 mmol/L. The blood glucose level ([4]; daily 10 g consumption, baseline over 7 mmol/L) was no more than 4 mmol/L, the “Glucose/Ketone Index (GKI)” value ([5]; after consuming 10 g) was 1.8 and the GKI levels ([5]; regular D-BHB consumption) was 1-3. For the same compound, the “extension of deep sleep” value [6] was “extended by over an hour”, the “systolic and diastolic blood pressure” value [7] was “measurable decrease” and the blood oxygen level [8] was 99%. For the same compound, the sensation of hunger [9] was “greater reduction to even omission of hunger sensations”, the post-workout recovery time [10] was “markedly reduced” and the “range of performance before pain and fatigue” value ([10]; 27 minutes without supplementation) was 44 min. For the same compound, the cognitive mood enhancement [11] was “cognitive improvement”, the bone density [12] was “bone density health and retention” and the gout pain ([13]; 15 g, in three days) was “from extreme to very moderate”. The gout inflammation ([13]; continued daily consumption, in less than one week) was “entirely removed gout inflammation”.

In the case of `CC(O)CC(=O)[O-].[Na+]` (centres unmarked) [b-OHB], the renal dysfunction (HDAC; IR-injured kidney) is listed as “ameliorated renal dysfunction” and the “HDAC activity in the IR-injured kidney” value (HDAC) is listed as “inhibited HDAC activity”.
